Earlier results as cited in patent publication US7265142B2, “Materials and methods for the treatment of hypertension and angina” (ARYx Therapeutics, priority 2001, dated 2007).

Settings: background statement; patients switched from mibefradil to dihydropyridine CCBs

COCC(=O)O[C@]1(CCN(C)CCCc2nc3ccccc3[nH]2)CCc2cc(F)ccc2[C@@H]1C(C)C [mibefradil]
half-life: up to 24 hours
